Where “and” joins values, the source holds several entries; their conditions need not be identical. Identical values can stand only once. Counter-ions that a name gives are not always drawn. Like-named read-outs stand apart in the source and are kept apart here. Marks after values point to notes of the source that are not given here.
What was measured:
[1] = target: T1, human H3 receptor (hH3R) (Homo sapiens, UniProt Q9Y5N1); assay: [3H]-Nα-methylhistamine radioligand binding assay, HEK293 cell membranes expressing hH3R; conditions: hH3R Ki Mean [CI 95%], HEK293 cells expressing human H3 receptor; at least three independent repetitions
T1 construct: expressed in transfected cells; host or cells: HEK293
Experimental: The affinity for hH3R was assessed in vitro in radioligand binding assays, using membrane preparations of HEK293 cells stably expressing hH3R, while [^3H]-N^α-methylhistamine was used as a radioligand. The exact procedure was described previously by Kottke et al.. Novel compounds were tested as oxalic acid salts. […]. The activity depended on all three variables, i.e., the presence of an amine group, the chain length (five or six carbons), and the type of substituent in the phenyl ring. With regard to the change in the amine moiety, it can be observed that, regardless of the length of the chain and the type of R substituent, the activity of the derivatives was arranged in the following order: 3-methylpiperidine ≥ piperidine ≥ azepane >> 4-metylpiperidine derivatives. Regarding the length of the carbon chain, compounds bearing the pentylene chain are characterized by a higher binding affinity to the receptor than hexylene derivatives (exception: 10). […]
H3R receptor affinity assays were performed in the radioligand competition assay. Human H3R was stably expressed in HEK293 cells. [^3H]-N^α-Methylhistamine (KD = 3.08 nM) was used as the radioligand. The compounds used in the experiments were dissolved in DMSO. The precise experiment was performed as previously described. Complete curves were obtained for at least seven approximate concentrations, in at least three independent experiments, performed at least in duplicate. Ki values were calculated using the Cheng–Prusoff equation. Results are presented as mean values with confidence intervals (CI) (95%).

[2] = target: T2, AChE from electrophorus electricus (eeAChE) (Electrophorus electricus, UniProt O42275); assay: modified Ellman colorimetric assay, eeAChE; type: biochemical; conditions: for IC50: three independent experiments, read-out: eeAChE IC50 Mean ± SEM; for inhibition at 10 µM: read-out: eeAChE % inh
T2 construct: purchased Sigma-Aldrich (Steinheim, Germany)
Experimental: All compounds were tested at a concentration of 10 µM in a modified colorimetric method first described by Ellman et al. in the 1960s, using AChE from electrophorus electricus (eeAChE) and BuChE from equine serum (eqBuChE). […]. All results are collected in Table 1. […]. […] No correlation was observed between inhibitory activity and hH3R affinity. The most interesting compounds were among the azepane derivatives. […]. AChE from electrophorus electricus and BuChE from equine serum were purchased from Sigma-Aldrich (Steinheim, Germany). The whole procedure was performed as previously described, using a modified Ellman method in 96-well microplates. Absorbance was measured using an EnSpire multimode microplate reader (PerkinElmer, Waltham, MA, USA) at 412 nm. Initial screening was performed for compounds at a concentration of […]. The percentage of inhibition was calculated by comparison with a blank sample (100% enzyme activity). For compounds showing >70% inhibition of enzyme activity, IC50 values were determined, measuring absorbance at six different inhibitor concentrations. Each concentration was measured in triplicate. IC50 values were calculated using GrapPad Prism 9 software (GraphPad Software, San Diego, CA, USA). Data are expressed as mean ± SEM.

[3] = target: T3, BuChE from equine serum (eqBuChE) (Equus caballus, UniProt P81908); assay: biochemical; conditions: for inhibition at 10 µM: read-out: eqBuChE % inh; for IC50: three independent experiments, read-out: eqBuChE IC50 Mean ± SEM
T3 construct: BuChE from equine serum (eqBuChE); purchased Sigma-Aldrich (Steinheim, Germany); host or cells: equine serum
Experimental: AChE from electrophorus electricus and BuChE from equine serum were purchased from Sigma-Aldrich (Steinheim, Germany). The whole procedure was performed as previously described, using a modified Ellman method in 96-well microplates. […] Initial screening was performed for compounds at a concentration of […]. The percentage of inhibition was calculated by comparison with a blank sample (100% enzyme activity). […] Each concentration was measured in triplicate. IC50 values were calculated using GrapPad Prism 9 software (GraphPad Software, San Diego, CA, USA). Data are expressed as mean ± SEM.

[4] = target: T4, hMAO B (Homo sapiens, UniProt P27338); assay: fluorometric Amplex red MAO assay; type: biochemical; conditions: read-out: hMAO B % inh
T4 construct: purchased Sigma-Aldrich (Steinheim, Germany)
T4 sequence (P27338 1-520): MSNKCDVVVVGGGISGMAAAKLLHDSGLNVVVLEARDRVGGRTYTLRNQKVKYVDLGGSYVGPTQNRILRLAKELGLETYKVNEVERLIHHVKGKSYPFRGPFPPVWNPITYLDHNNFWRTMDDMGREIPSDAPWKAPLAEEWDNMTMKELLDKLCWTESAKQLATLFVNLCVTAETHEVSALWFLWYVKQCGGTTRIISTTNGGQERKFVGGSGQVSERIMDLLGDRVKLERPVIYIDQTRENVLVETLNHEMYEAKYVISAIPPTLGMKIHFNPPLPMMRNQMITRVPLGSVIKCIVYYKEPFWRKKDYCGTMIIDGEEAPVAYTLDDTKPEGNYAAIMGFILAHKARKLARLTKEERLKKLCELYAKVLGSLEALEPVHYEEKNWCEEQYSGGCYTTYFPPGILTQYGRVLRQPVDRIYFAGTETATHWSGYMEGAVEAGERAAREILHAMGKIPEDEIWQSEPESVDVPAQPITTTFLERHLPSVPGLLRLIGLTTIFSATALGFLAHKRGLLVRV
Experimental: The ability to inhibit MAO B was estimated by a fluorescence assay, as previously described.
The enzyme was purchased from Sigma-Aldrich (Steinheim, Germany). Screening was carried out at a concentration of 1 micromolar. Inhibitor activity was measured in the presence of p-tyramine.
Data are expressed as mean values of two independent experiments.

[5] = MTS assay in HepG2 cells; type: cell-based; conditions: human, HepG2 hepatoma cells; at 50 µM, percentage of control (vehicle-treated cells); read-out: HepG2 Cell Viability (%)
Experimental: (§1) . After the indicated time, the MTS reagent was added directly to the cultured cells for 1 h, and then the absorbance at 490 nm was read. […] The results are presented in Table 2 and Figures S1 and S2 (Supplementary Materials).
(§2) The hepatoma cell line HepG2 (ATCC® HB-8065TM) and SH-SY5Y CRL-2266 neuroblastoma cell line were used to evaluate the toxicity of tested compounds. Tests were conducted as described previously. The CellTiter 96® Aqueous Non-Radioactive Cell Proliferation Assay was purchased from Promega (Madison, WI, USA). […]. […] Each experiment was performed twice, in triplicate.

[6] = test system: HepG2 cells; assay: MTS assay in HepG2 cells; type: cell-based; conditions: Homo sapiens, HepG2; MTS assay, 48 h of exposure
Experimental: as §1, §2

[7] = test system: SH-SY5Y cells; assay: MTS assay in SH-SY5Y cells; type: cell-based; conditions: for SH-SY5Y Cell Viability (%): at 50 µM, percentage of control (vehicle-treated cells)
Experimental: as §1, §2

[8] = MTS assay, statements on both cell lines together; type: cell-based, human; conditions: human, HepG2 hepatoma cells and SH-SY5Y neuroblastoma cells; HepG2 48 h, SH-SY5Y 24 h; up to 50 µM; read-out: cell viability at the highest doses tested
[9] = target: hH3R; conditions: cited from earlier work
[10] = target: T2, AChE from electrophorus electricus (eeAChE); conditions: at 10 µM; cited from earlier work
[11] = MTS assay in SH-SY5Y cells; type: cell-based; conditions: human, SH-SY5Y neuroblastoma cells; at 50 µM, percentage of control (vehicle-treated cells); read-out: SH-SY5Y Cell Viability (%)
Experimental: as §1, §2

[12] = at 1 µM, two independent experiments

T3 sequence (P81908 whole entry): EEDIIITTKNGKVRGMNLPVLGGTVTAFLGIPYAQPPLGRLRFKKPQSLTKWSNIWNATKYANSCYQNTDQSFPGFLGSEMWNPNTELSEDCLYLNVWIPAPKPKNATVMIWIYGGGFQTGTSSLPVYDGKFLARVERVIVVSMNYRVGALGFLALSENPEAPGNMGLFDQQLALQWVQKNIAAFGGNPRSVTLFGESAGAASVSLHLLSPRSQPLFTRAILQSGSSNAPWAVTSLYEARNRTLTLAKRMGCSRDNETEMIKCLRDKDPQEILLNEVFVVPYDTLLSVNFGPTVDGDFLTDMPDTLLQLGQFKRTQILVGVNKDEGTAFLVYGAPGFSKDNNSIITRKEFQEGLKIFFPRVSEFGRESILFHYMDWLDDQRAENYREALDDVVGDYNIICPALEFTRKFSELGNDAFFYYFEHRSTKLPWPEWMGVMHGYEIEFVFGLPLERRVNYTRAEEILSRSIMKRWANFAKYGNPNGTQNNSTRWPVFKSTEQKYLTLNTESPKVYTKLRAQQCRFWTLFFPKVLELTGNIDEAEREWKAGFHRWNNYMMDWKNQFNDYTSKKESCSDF
T1 sequence (Q9Y5N1 whole entry): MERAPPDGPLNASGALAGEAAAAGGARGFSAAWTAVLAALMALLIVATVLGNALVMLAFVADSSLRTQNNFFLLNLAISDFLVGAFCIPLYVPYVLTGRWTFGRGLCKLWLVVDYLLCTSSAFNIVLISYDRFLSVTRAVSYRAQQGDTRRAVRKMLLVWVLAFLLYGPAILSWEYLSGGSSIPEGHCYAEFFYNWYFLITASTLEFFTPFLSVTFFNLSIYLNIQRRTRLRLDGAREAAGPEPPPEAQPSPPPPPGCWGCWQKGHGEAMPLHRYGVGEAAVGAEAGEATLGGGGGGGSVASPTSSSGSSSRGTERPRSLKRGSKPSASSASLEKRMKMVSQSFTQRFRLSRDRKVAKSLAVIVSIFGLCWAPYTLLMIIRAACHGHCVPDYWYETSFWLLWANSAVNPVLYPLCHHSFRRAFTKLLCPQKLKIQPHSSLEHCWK
T2 sequence (O42275 24-633): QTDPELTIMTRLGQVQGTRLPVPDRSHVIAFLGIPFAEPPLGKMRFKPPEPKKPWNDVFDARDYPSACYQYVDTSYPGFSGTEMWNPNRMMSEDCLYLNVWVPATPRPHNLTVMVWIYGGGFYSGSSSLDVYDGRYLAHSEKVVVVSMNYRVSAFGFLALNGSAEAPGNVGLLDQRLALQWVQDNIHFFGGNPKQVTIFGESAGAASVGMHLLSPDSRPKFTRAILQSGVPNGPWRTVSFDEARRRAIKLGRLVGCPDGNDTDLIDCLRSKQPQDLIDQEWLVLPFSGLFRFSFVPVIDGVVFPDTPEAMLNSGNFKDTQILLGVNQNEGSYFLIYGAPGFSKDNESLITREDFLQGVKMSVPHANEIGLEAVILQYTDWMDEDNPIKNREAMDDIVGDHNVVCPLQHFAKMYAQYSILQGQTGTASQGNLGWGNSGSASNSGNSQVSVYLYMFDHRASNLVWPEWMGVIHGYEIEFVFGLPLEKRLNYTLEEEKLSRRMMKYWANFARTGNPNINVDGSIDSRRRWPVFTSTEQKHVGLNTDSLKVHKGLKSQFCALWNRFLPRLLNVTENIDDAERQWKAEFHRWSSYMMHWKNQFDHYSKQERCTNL

For CC(=O)c1ccc(OCCCCCCN2CCCC(C)C2)cc1.O=C(O)C(=O)O (stereo not shown) [Compound 7, 1-(4-((6-(3-Methylpiperidin-1-yl)hexyl)oxy)phenyl)ethan-1-one hydrogen oxalate], the Ki [1] was 72 nM, the IC50 [2] was 1750 ± 50 nM and the inhibition at 10 µM [3] was 18%. It also gave an inhibition at 1 µM [4, 12] of 0%, a viability at 48 h, 50 µM [5] of 72.4 ± 4.54% and an IC50 [6] of 148000 nM. The “SH-SY5Y Cell Viability (%)” value [7] was “No toxic effect” and the viability at 50 µM [8] was over 50%.
For Cc1ccc2oc(-c3ccc(OCCCCCCN4CCCCCC4)cc3)cc(=O)c2c1 [III], the Ki [9] is listed as 160 nM.
For CC(=O)c1ccc(OCCCCCCN2CCC(C)CC2)cc1.O=C(O)C(=O)O [Compound 11, 1-(4-((6-(4-Methylpiperidin-1-yl)hexyl)oxy)phenyl)ethan-1-one hydrogen oxalate], the Ki [1] was 106 nM, the IC50 [2] was 2650 ± 110 nM and the inhibition at 10 µM [3] was 49%. The inhibition at 1 µM [4, 12] was 0%, the viability at 48 h, 50 µM [5] was 77.5 ± 0.94% and the IC50 [6] was 223000 nM. The “SH-SY5Y Cell Viability (%)” value [7] was “No toxic effect” and the viability at 50 µM [8] was over 50%.
In the case of CCC(=O)c1ccc(OCCCCCN2CCCCC2)cc1 [Compound 4, 1-(4-((5-(Piperidin-1-yl)pentyl)oxy)phenyl)propan-1-one hydrogen oxalate], the Ki [1] is reported as < 50 nM and 24 nM, the inhibition at 10 µM [2] is reported as 49% and the inhibition at 10 µM [3] is reported as 32%. For the same molecule, the inhibition at 1 µM [4, 12] was 16%.
For CCC(=O)c1ccc(OCCCCCCN2CCC(C)CC2)cc1.O=C(O)C(=O)O [Compound 13, 1-(4-((6-(4-Methylpiperidin-1-yl)hexyl)oxy)phenyl)propan-1-one hydrogen oxalate], the Ki [1] was 58 nM, the IC50 [2] was 2560 ± 80 nM and the inhibition at 10 µM [3] was 65%. For the same molecule, the inhibition at 1 µM [4, 12] was 1%, the viability at 48 h, 50 µM [5] was 64.7 ± 4.4% and the IC50 [6] was 105000 nM. The “SH-SY5Y Cell Viability (%)” value [7] was “No toxic effect” and the viability at 50 µM [8] was over 50%.
CC(=O)c1ccc(OCCCCCN2CCC(C)CC2)cc1 [Compound 10, 1-(4-((5-(4-Methylpiperidin-1-yl)pentyl)oxy)phenyl)ethan-1-one hydrogen oxalate] gave a Ki [1] of 120 nM, an inhibition at 10 µM [2] of 60% and an inhibition at 10 µM [3] of 43%. For the same molecule, the inhibition at 1 µM [4, 12] was 0%.
CC(=O)c1ccc(OCCCCCCN2CCCCCC2)cc1 [Compound 15, 1-(4-((6-(Azepan-1-yl)hexyl)oxy)phenyl)ethan-1-one hydrogen oxalate] gave a Ki [1] of 79 nM, an inhibition at 10 µM [2] of 67% and an inhibition at 10 µM [3] of 68%. It also gave an inhibition at 1 µM [4, 12] of 6%.
For CCC(=O)c1ccc(OCCCCCCN2CCCC(C)C2)cc1 (stereo not shown) [Compound 9, 1-(4-((6-(3-Methylpiperidin-1-yl)hexyl)oxy)phenyl)propan-1-one hydrogen oxalate], the Ki [1] was < 50 nM and 38 nM, the inhibition at 10 µM [2] was 68% and the inhibition at 10 µM [3] was 66%. The inhibition at 1 µM [4, 12] was 12%.
For O=c1c2ccccc2oc2ccc(OCCCCCN3CCCCCC3)cc12 [IV], the Ki [9] is given as 170 nM.
For Clc1ccc(CCCOCCCN2CCCCC2)cc1 [pitolisant], the eeAChE % inh [10] is given as “(3%) ^g”.
Work on CCC(=O)c1ccc(OCCCCCN2CCCC(C)C2)cc1 (stereo not shown) [Compound 8, 1-(4-((5-(3-Methylpiperidin-1-yl)pentyl)oxy)phenyl)propan-1-one hydrogen oxalate] yielded a Ki [1] of 12 nM, an IC50 [2] of 2100 ± 60 nM and an IC50 [3] of 1750 ± 50 nM. For the same molecule, the inhibition at 1 µM [4, 12] was 19%, the viability at 48 h, 50 µM [5] was 70.9 ± 2.92% and the IC50 [6] was 142000 nM. It also gave a viability at 24 h, 50 µM [11] of 90.7 ± 1.5%, an IC50 ([7]; Homo sapiens, SH-SY5Y, MTS assay, 24 h of exposure) of 349000 nM and a viability at 50 µM [8] of over 50%.
Work on C#CCN[C@@H]1CCc2ccccc21 [rasagiline, reference compound] yielded an inhibition at 1 µM [4] of 100%.
CC(=O)c1ccc(OCCCCCCN2CCCCC2)cc1 [Compound 3, 1-(4-((6-(Piperidin-1-yl)hexyl)oxy)phenyl)ethan-1-one hydrogen oxalate] showed a Ki [1] of 75 nM, an inhibition at 10 µM [2] of 67% and an inhibition at 10 µM [3] of 23%. The inhibition at 1 µM [4, 12] was 3%.
For CC(=O)c1ccc(OCCCCCN2CCCCC2)cc1 [Compound 2, 1-(4-((5-(Piperidin-1-yl)pentyl)oxy)phenyl)ethan-1-one hydrogen oxalate], the Ki [1] was < 50 nM and 34 nM, the inhibition at 10 µM [2] was 45% and the inhibition at 10 µM [3] was 25%. For the same molecule, the inhibition at 1 µM [4, 12] was 2%.
For CCC(=O)c1ccc(OCCCCCCN2CCCCC2)cc1.O=C(O)C(=O)O [Compound 5, 1-(4-((6-(Piperidin-1-yl)hexyl)oxy)phenyl)propan-1-one hydrogen oxalate], the Ki [1] was < 50 nM and 41 nM, the IC50 [2] was 4790 ± 190 nM and the IC50 [3] was 1350 ± 40 nM. The inhibition at 1 µM [4, 12] was 22%, the viability at 48 h, 50 µM [5] was 69.5 ± 2.14% and the IC50 [6] was 158000 nM. The “SH-SY5Y Cell Viability (%)” value [7] was “No toxic effect” and the viability at 50 µM [8] was over 50%.
In the case of CC(=O)c1ccc(OCCCCCN2CCCCCC2)cc1 [Compound 14, 1-(4-((5-(Azepan-1-yl)pentyl)oxy)phenyl)ethan-1-one hydrogen oxalate], the Ki [1] is reported as 52 nM, the inhibition at 10 µM [2] is reported as 63% and the inhibition at 10 µM [3] is reported as 63%. The inhibition at 1 µM [4, 12] was 37%.

— PMC10005104 (Molecules, 2023)
